Common to all, as to assay type: functional
Details in all cases: K12, 24 h

In assay [1] the test system is Escherichia coli. The assay can be described thus: Antibacterial activity against Escherichia coli K12 in M9 minimal medium after 24 hrs by broth dilution method in presence of beta-alanine.
Assay [2] relates to Escherichia coli. The assay can be described thus: Antibacterial activity against Escherichia coli K12 in M9 minimal medium after 24 hrs by broth dilution method.
For assay [3], the system named is Escherichia coli. The assay can be described thus: Antibacterial activity against Escherichia coli K12 in tryptone broth after 24 hrs by broth dilution method.
For assay [4], the system named is Escherichia coli. Description: Antibacterial activity against Escherichia coli K12 in M9 minimal medium after 24 hrs by broth dilution method in presence of pantothenate.

In brackets after ≈: the same amount, converted by molar mass.

Turning to `CCCNC(=O)CCNC(=O)[C@H](O)C(C)(C)CO`, the MIC came out at 250 µM in the assay with Escherichia coli [1], 1 µM (≈ 0.26 µg/mL) in the assay on Escherichia coli [2], 500 µM (≈ 130 µg/mL) with Escherichia coli [3] and 500 µM in the assay with Escherichia coli [4].
Regarding `C=CC(=O)NCCNC(=O)CCNC(=O)[C@H](O)C(C)(C)CO`, the MIC in the assay with Escherichia coli [2] is 500 µM (≈ 158 µg/mL); with Escherichia coli [3], > 500 µM.
On the same counts, the results for `C#CC(=O)NCCNC(=O)CCNC(=O)[C@H](O)C(C)(C)CO` are > 500 µM and > 500 µM.
On to `CCC(=O)NCCNC(=O)CCNC(=O)[C@H](O)C(C)(C)CO`, for which the MIC against Escherichia coli [2] and in the assay on Escherichia coli [3] was > 500 µM in each case.
For the compound `CCOC(=O)NCCNC(=O)CCNC(=O)[C@H](O)C(C)(C)CO`, the minimal inhibitory concentration (MIC) with Escherichia coli [2] and with Escherichia coli [3] was > 500 µM throughout.
Turning to `C#CCCCCNC(=O)CCNC(=O)[C@H](O)C(C)(C)CO`, the MIC in the assay on Escherichia coli [2] is 500 µM (≈ 149 µg/mL); against Escherichia coli [3], > 500 µM.
Consider `C#CCCNC(=O)CCNC(=O)[C@H](O)C(C)(C)CO`, for which the MIC was > 500 µM in the assay on Escherichia coli [1], 7.5 µM (≈ 2.03 µg/mL) against Escherichia coli [2], > 500 µM in the assay with Escherichia coli [3] and > 500 µM with Escherichia coli [4].
`CCC(=O)OCCNC(=O)CCNC(=O)[C@H](O)C(C)(C)CO`: the figures for the MIC in the assay on Escherichia coli [2] and in the assay on Escherichia coli [3] were 500 µM (≈ 159 µg/mL) and > 500 µM, respectively.
In the same order, the values of `C#CCNC(=O)[C@H](O)C(C)(C)CO` are 500 µM (≈ 92.6 µg/mL) and > 500 µM.
For the compound `C=CCNC(=O)CCNC(=O)[C@H](O)C(C)(C)CO`, the MIC is 125 µM in the assay on Escherichia coli [1], 3 µM (≈ 0.775 µg/mL) in the assay with Escherichia coli [2], > 500 µM in the assay on Escherichia coli [3] and 250 µM with Escherichia coli [4].
On the same counts, the results for `C#CCNC(=O)CCNC(=O)[C@H](O)C(C)(C)CO` are > 500 µM, 4 µM (≈ 1.03 µg/mL), > 500 µM and > 500 µM.
As for `C#CCCCNC(=O)CCNC(=O)[C@H](O)C(C)(C)CO`, the MIC is > 500 µM in the assay on Escherichia coli [1], 15 µM (≈ 4.27 µg/mL) in the assay on Escherichia coli [2], > 500 µM against Escherichia coli [3] and > 500 µM in the assay with Escherichia coli [4].
As to `CC(C)(CO)[C@@H](O)C(=O)NCCC(=O)NCCN=[N+]=[N-]`, the MIC with Escherichia coli [2] and against Escherichia coli [3] was > 500 µM throughout.
Regarding `CCCCCNC(=O)CCNC(=O)[C@H](O)C(C)(C)CO`, the MIC in the assay with Escherichia coli [1] came to 250 µM; against Escherichia coli [2] it was 6 µM (≈ 1.73 µg/mL); in the assay on Escherichia coli [3], 50 µM (≈ 14.4 µg/mL); in the assay with Escherichia coli [4], 500 µM.
Turning to `C#CCCC(=O)NCCNC(=O)CCNC(=O)[C@H](O)C(C)(C)CO`, the MIC in the assay on Escherichia coli [2] and with Escherichia coli [3] was > 500 µM each time.

These data come from ChEMBL document CHEMBL1151784, “Antibiotic evaluation and in vivo analysis of alkynyl Coenzyme A antimetabolites in Escherichia coli” (2008).
